Results reported in US20200206196A1, “Antiviral Drugs” (priority 2017, published 2020).
Residues, ends and D or L forms follow the SMILES beside them.

Legend:
HeV [1] = format: cell-based, Hendra virus
NiV = format: cell-based, Nipah virus
HeV [2] = format: cell-based, Hendra virus; remark: listed apart in the source
[3] = tested on: vesicular stomatitis virus (VSV); format: cell-based
HeLa cells [4] = test: Cell viability: relative cell numbers (DAPI nuclei count); conditions: 26 h post-treatment, concentrations resulting in antiviral activity
[5] = tested on: HeV-F and HeV-G mediated cell-cell fusion; format: cell-based, Hendra virus
[6] = tested on: influenza A virus (A/WSN/33); format: cell-based, Influenza A/WSN/33 (H1N1)
HeV [7] = format: cell-based, Hendra virus; remark: listed apart in the source
RSV = format: cell-based, RSV (strain A2)
HeLa cells [8] = test: Alamar blue assay of metabolic activity; format: cell-based; conditions: HeLa cells treated for 26 h, vs vehicle or media
HeV [9] = format: cell-based, Hendra virus; remark: listed apart in the source

Structure (SMILES)	HeV infection (HeV titres), dose response (HeV [1])	reduction in virus titres, NiV (NiV)	reduction in HeV titers (HeV [1]) [%]	reduction in virus titres, HeV (HeV [1])	intracellular viral RNA levels (HeV [2])	reduction in virus titres, VSV [3]	impact on cell numbers (HeLa cells [4])	cell-cell fusion of target cells with HeV-F/HeV-G effector cells [5]	reduction in virus titres, A/WSN/33 [6]	viral protein production (P protein and N protein) (HeV [7])	reduction in virus titres, RSV (RSV)	change in metabolic activity (Alamar blue) (HeLa cells [8])	inhibition of viral protein synthesis (virus antigen levels per well) (HeV [9])	inhibition of virus-induced cell death (cell numbers per well) (HeV [9])
CCOc1nc2cccc(C(=O)O)c2n1Cc1ccc(-c2ccccc2-c2nnn[nH]2)cc1 [Candesartan]	inhibited HeV infection in a dose-dependent manner	–	–	–	–	–	–	–	–	–	–	–	–	–
CCCc1nc2c(C)cc(-c3nc4ccccc4n3C)cc2n1Cc1ccc(-c2ccccc2C(=O)O)cc1 [Telmisartan]	inhibited HeV infection in a dose-dependent manner	significant reduction in virus titres	~95	significant reduction in virus titres	significantly reduced intracellular viral RNA levels	significant reduction in virus titres	mild impact on cell numbers	comparable to target cells treated with vehicle	not for A/WSN/33	almost completely abolished	significant reduction in virus titres	no significant change in metabolic activity	–	–
CSCC[C@@H](C=O)NC(=O)[C@H](CC(C)C)NC(=O)[C@H](CC(C)C)NC(C)=O [calpain inhibitor II] (Ac-Leu-Leu-Met-aldehyde)	–	–	–	–	–	–	–	–	–	–	–	–	more effective than E64D	more effective than E64D
